Reference: the supplement of paper PMC10307832

Experiments:
Assay in all cases: relative viability (nuclei count vs DMSO), 5 days (fraction); higher = more cells survive
CAL-12T = test system: CAL-12T
Method in brief: (§1)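 Nuclei were stained with Hoechst during a one-step fixation (final 0.05% Triton X-100, 1% formaldehyde, 1 ug/ml Hoechst) carried out 5 days after dosing, then counted on 4× images. The cells, lung cancer lines in 1536-well plates, had been dosed by pin tool the day after seeding with one drug alone or a fixed anchor-drug dose plus five library-drug doses (not always all listed) in √10 steps. Relative viability is the nuclei count in treated wells divided by that in vehicle wells, and each value is the median of duplicate plates.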

NCI-H1651 = test system: NCI-H1651
Method in brief: as §1

NCI-H1563 = test system: NCI-H1563
Method in brief: as §1

H3255 = test system: H3255
Method in brief: as §1

NCI-H1437 = test system: NCI-H1437
Method in brief: as §1

NCI-H1650 = test system: NCI-H1650
Method in brief: as §1

NCI-H2228 = test system: NCI-H2228
Method in brief: as §1

NCI-H661 = test system: NCI-H661
Method in brief: as §1

ABC-1 = test system: ABC-1
Method in brief: as §1

NCI-H322M = test system: NCI-H322M
Method in brief: as §1

NCI-H520 = test system: NCI-H520
Method in brief: as §1

SK-MES-1 = test system: SK-MES-1
Method in brief: as §1

PC-3 [JPC-3] = test system: PC-3 [JPC-3]
Method in brief: as §1

NCI-H2405 = test system: NCI-H2405
Method in brief: as §1

COR-L23 = test system: COR-L23
Method in brief: as §1

EKVX = test system: EKVX
Method in brief: as §1

PC-14 = test system: PC-14
Method in brief: as §1

NCI-H1355 = test system: NCI-H1355
Method in brief: as §1

LK-2 = test system: LK-2
Method in brief: as §1

HCC-15 = test system: HCC-15
Method in brief: as §1

NCI-H1734 = test system: NCI-H1734
Method in brief: as §1

RERF-LC-KJ = test system: RERF-LC-KJ
Method in brief: as §1

SW 1573 = test system: SW 1573
Method in brief: as §1

HCC-827 = test system: HCC-827
Method in brief: as §1

For CC(C)Oc1cc(Nc2nc(N[C@@H](C)c3ccc(F)cn3)ncc2Cl)n[nH]1 [AZ23] + C[C@@H](Oc1cc(-c2cnn(C3CCNCC3)c2)cnc1N)c1c(Cl)ccc(F)c1Cl [Crizotinib] (partner 1 µM), the relative viability (CAL-12T; first compound 0.01 µM) was 0.324, the relative viability (CAL-12T; first compound 0.03162 µM) was 0.759 and the relative viability (CAL-12T; first compound 0.3162 µM) was 0.583. The relative viability (NCI-H1651; first compound 0.01 µM) was 0.94, the relative viability (NCI-H1651; first compound 0.03162 µM) was 0.97 and the relative viability (NCI-H1651; first compound 0.3162 µM) was 0.875. The relative viability (NCI-H1563; first compound 0.01 µM) was 0.837, the relative viability (NCI-H1563; first compound 0.03162 µM) was 0.912 and the relative viability (NCI-H1563; first compound 0.3162 µM) was 0.865. It also gave a relative viability (H3255; first compound 0.01 µM) of 0.981, a relative viability (H3255; first compound 0.03162 µM) of 1.18 and a relative viability (H3255; first compound 0.3162 µM) of 1.01. For the same compound, the relative viability (NCI-H1437; first compound 0.01 µM) was 1.21, the relative viability (NCI-H1437; first compound 0.03162 µM) was 0.996 and the relative viability (NCI-H1437; first compound 0.3162 µM) was 1.03. It also gave a relative viability (NCI-H1650; first compound 0.01 µM) of 0.863, a relative viability (NCI-H1650; first compound 0.03162 µM) of 1.4 and a relative viability (NCI-H1650; first compound 0.3162 µM) of 0.984. The relative viability (NCI-H2228; first compound 0.01 µM) was 0.64, the relative viability (NCI-H2228; first compound 0.03162 µM) was 0.449 and the relative viability (NCI-H2228; first compound 0.3162 µM) was 0.33. It also gave a relative viability (NCI-H661; first compound 0.01 µM) of 1.1, a relative viability (NCI-H661; first compound 0.03162 µM) of 1.19 and a relative viability (NCI-H661; first compound 0.3162 µM) of 1.11. The relative viability (ABC-1; first compound 0.01 µM) was 0.752, the relative viability (ABC-1; first compound 0.03162 µM) was 1.27 and the relative viability (ABC-1; first compound 0.3162 µM) was 1.25. It also gave a relative viability (NCI-H322M; first compound 0.01 µM) of 1.08, a relative viability (NCI-H322M; first compound 0.03162 µM) of 1.14 and a relative viability (NCI-H322M; first compound 0.3162 µM) of 0.939. The relative viability (NCI-H520; first compound 0.01 µM) was 0.869, the relative viability (NCI-H520; first compound 0.03162 µM) was 0.864 and the relative viability (NCI-H520; first compound 0.3162 µM) was 0.732. It also gave a relative viability (SK-MES-1; first compound 0.01 µM) of 1.02, a relative viability (SK-MES-1; first compound 0.03162 µM) of 1.14 and a relative viability (SK-MES-1; first compound 0.3162 µM) of 0.938. For the same compound, the relative viability (PC-3 [JPC-3]; first compound 0.01 µM) was 1.3, the relative viability (PC-3 [JPC-3]; first compound 0.03162 µM) was 1.07 and the relative viability (PC-3 [JPC-3]; first compound 0.3162 µM) was 0.91. For the same compound, the relative viability (NCI-H2405; first compound 0.01 µM) was 0.825, the relative viability (NCI-H2405; first compound 0.03162 µM) was 0.904 and the relative viability (NCI-H2405; first compound 0.3162 µM) was 0.854. For the same compound, the relative viability (COR-L23; first compound 0.01 µM) was 0.763, the relative viability (COR-L23; first compound 0.03162 µM) was 0.828 and the relative viability (COR-L23; first compound 0.3162 µM) was 0.766. For the same compound, the relative viability (EKVX; first compound 0.01 µM) was 1.05, the relative viability (EKVX; first compound 0.03162 µM) was 1.03 and the relative viability (EKVX; first compound 0.3162 µM) was 1.03. It also gave a relative viability (PC-14; first compound 0.01 µM) of 0.896, a relative viability (PC-14; first compound 0.03162 µM) of 1.21 and a relative viability (PC-14; first compound 0.3162 µM) of 0.89. It also gave a relative viability (NCI-H1355; first compound 0.01 µM) of 1.19, a relative viability (NCI-H1355; first compound 0.03162 µM) of 1.11 and a relative viability (NCI-H1355; first compound 0.3162 µM) of 1.09. The relative viability (LK-2; first compound 0.03162 µM) was 0.223, the relative viability (LK-2; first compound 0.3162 µM) was 0.216 and the relative viability (HCC-15; first compound 0.01 µM) was 1.1. The relative viability (HCC-15; first compound 0.03162 µM) was 0.881, the relative viability (HCC-15; first compound 0.3162 µM) was 0.884 and the relative viability (NCI-H1734; first compound 0.01 µM) was 0.713. For the same compound, the relative viability (NCI-H1734; first compound 0.03162 µM) was 0.782, the relative viability (NCI-H1734; first compound 0.3162 µM) was 0.76 and the relative viability (RERF-LC-KJ; first compound 0.01 µM) was 1. It also gave a relative viability (RERF-LC-KJ; first compound 0.03162 µM) of 1, a relative viability (RERF-LC-KJ; first compound 0.3162 µM) of 0.915 and a relative viability (SW 1573; first compound 0.01 µM) of 0.915. The relative viability (SW 1573; first compound 0.03162 µM) was 0.997, the relative viability (SW 1573; first compound 0.3162 µM) was 0.727 and the relative viability (HCC-827; first compound 0.01 µM) was 0.993. It also gave a relative viability (HCC-827; first compound 0.03162 µM) of 1.03 and a relative viability (HCC-827; first compound 0.3162 µM) of 0.881.
